Data from ChEMBL document CHEMBL3352110, “Design, synthesis and in vitro evaluation of novel dehydroabietic acid derivatives containing a dipeptide moiety as potential anticancer agents” (Eur J Med Chem, 2015).
The source made the active and inactive calls. The rule behind the calls is not given here.

Experiments:
HeLa [1] = test: Cytotoxicity against human HeLa cells after 48 hrs by MTT assay; assay type: functional, cell-based
NCI-H460 = test: Cytotoxicity against human NCI-H460 cells after 48 hrs by MTT assay; assay type: functional, cell-based; details: NCI-H460, 48 h
MGC-803 = test: Cytotoxicity against human MGC803 cells after 48 hrs by MTT assay; assay type: functional, cell-based; details: MGC-803, 48 h
[2] = Cytotoxicity against human HL7702 cells after 48 hrs by MTT assay; assay type: functional, cell-based; details: L02, 48 h
HeLa [3] = test: Induction of apoptosis in human HeLa cells assessed as chromatin condensation at 15 uM after 12 to 24 hrs by acridine orange/ethidium bromide staining-based assay; assay type: functional, cell-based
HeLa [4] = test: Induction of apoptosis in human HeLa cells assessed as chromatin fragmentation at 15 uM after 12 to 24 hrs by acridine orange/ethidium bromide staining-based assay relative to control; assay type: functional, cell-based
HeLa [5] = test: Induction of apoptosis in human HeLa cells at 15 uM after 12 to 24 hrs by Hoechst 33258 staining-based assay relative to control; assay type: functional, cell-based
HeLa [6] = test: Induction of apoptosis in human HeLa cells assessed as change in mitochondrial membrane potential at 15 uM after 12 to 24 hrs by JC-1 staining-based assay relative to control; assay type: functional, cell-based
HeLa [7] = test: Induction of apoptosis in human HeLa cells assessed as DNA fragmentation at 15 uM after 12 to 24 hrs by TUNEL assay relative to control; assay type: functional, cell-based
HeLa [8] = test: Induction of apoptosis in human HeLa cells assessed as early apoptotic cells at 10 uM after 12 hrs by Anexin-V-FITC/propidium iodide staining-based flow cytometry (reference value: 1.40%); assay type: functional
HeLa [9] = test: Induction of apoptosis in human HeLa cells assessed as early apoptotic cells at 15 uM after 12 hrs by Anexin-V-FITC/propidium iodide staining-based flow cytometry (reference value: 1.40%); assay type: functional
HeLa [10] = test: Induction of apoptosis in human HeLa cells assessed as late apoptotic cells at 10 uM after 12 hrs by Anexin-V-FITC/propidium iodide staining-based flow cytometry (reference value: 0.04%); assay type: functional
HeLa [11] = test: Induction of apoptosis in human HeLa cells assessed as late apoptotic cells at 15 uM after 12 hrs by Anexin-V-FITC/propidium iodide staining-based flow cytometry (reference value: 0.04%); assay type: functional
HeLa [12] = test: Induction of apoptosis in human HeLa cells assessed as dead cells at 10 uM after 12 hrs by Anexin-V-FITC/propidium iodide staining-based flow cytometry (reference value: 1.40%); assay type: functional
HeLa [13] = test: Induction of apoptosis in human HeLa cells assessed as dead cells at 15 uM after 12 hrs by Anexin-V-FITC/propidium iodide staining-based flow cytometry (reference value: 1.40%); assay type: functional
HeLa [14] = test: Induction of apoptosis in human HeLa cells assessed as viable cells at 10 uM after 12 hrs by Anexin-V-FITC/propidium iodide staining-based flow cytometry (reference value: 97.2%); assay type: functional; details: read-out: Activity
HeLa [15] = test: Induction of apoptosis in human HeLa cells assessed as viable cells at 15 uM after 12 hrs by Anexin-V-FITC/propidium iodide staining-based flow cytometry (reference value: 97.2%); assay type: functional; details: read-out: Activity
HeLa [16] = test: Induction of apoptosis in human HeLa cells assessed as apoptosis ratio at 10 uM after 12 hrs by Anexin-V-FITC/propidium iodide staining-based flow cytometry (reference value: 1.44%); assay type: functional
HeLa [17] = test: Induction of apoptosis in human HeLa cells assessed as apoptosis ratio at 15 uM after 12 hrs by Anexin-V-FITC/propidium iodide staining-based flow cytometry (reference value: 1.44%); assay type: functional
HeLa [18] = test: Cell cycle arrest in human HeLa cells assessed as accumulation at G1 phase at 10 uM after 48 hrs by propidium iodide stainin-based flow cytometry (reference value: 31.44%); assay type: functional
HeLa [19] = test: Cell cycle arrest in human HeLa cells assessed as accumulation at G1 phase at 15 uM after 48 hrs by propidium iodide stainin-based flow cytometry (reference value: 31.44%); assay type: functional
HeLa [20] = test: Cell cycle arrest in human HeLa cells assessed as accumulation at G2 phase at 10 uM after 48 hrs by propidium iodide stainin-based flow cytometry (reference value: 5.84%); assay type: functional
HeLa [21] = test: Cell cycle arrest in human HeLa cells assessed as accumulation at G2 phase at 15 uM after 48 hrs by propidium iodide stainin-based flow cytometry (reference value: 5.84%); assay type: functional
HeLa [22] = test: Cell cycle arrest in human HeLa cells assessed as accumulation at S phase at 10 uM after 48 hrs by propidium iodide stainin-based flow cytometry (reference value: 67.72%); assay type: functional
HeLa [23] = test: Cell cycle arrest in human HeLa cells assessed as accumulation at S phase at 15 uM after 48 hrs by propidium iodide stainin-based flow cytometry (reference value: 67.72%); assay type: functional
HeLa [24] = test: Induction of cytochrome C release in human HeLa cells assessed as karyopyknosis at 10 to 15 uM after 12 hrs by fluorescence microscopy relative to control; assay type: functional, cell-based
HeLa [25] = test: Induction of cytochrome C release in human HeLa cells assessed as nuclei conglomeration at 10 to 15 uM after 12 hrs by fluorescence microscopy relative to control; assay type: functional, cell-based
HeLa [26] = test: Induction of apoptosis in human HeLa cells assessed as ROS generation at 10 to 15 uM after 12 hrs by DCF-Da staining-based fluorescence microscopy relative to control; assay type: functional, cell-based
HeLa [27] = test: Induction of apoptosis in human HeLa cells assessed as caspase-3 activation by spectrophotometry relative to control; assay type: functional, cell-based; details: TDE = time-dependent effect
HeLa [28] = test: Induction of apoptosis in human HeLa cells assessed as caspase-9 activation by spectrophotometry relative to control relative to control; assay type: functional, cell-based; details: TDE = time-dependent effect
HeLa [29] = test: Induction of apoptosis in human HeLa cells assessed as increase in caspase-3 expression at 10 to 15 uM by Western blotting analysis relative to control; assay type: functional, cell-based
HeLa [30] = test: Induction of apoptosis in human HeLa cells assessed as increase in caspase-8 expression at 10 to 15 uM by Western blotting analysis relative to control; assay type: functional, cell-based
HeLa [31] = test: Induction of apoptosis in human HeLa cells assessed as increase in cytochrome c expression at 10 to 15 uM by Western blotting analysis relative to control; assay type: functional, cell-based
HeLa [32] = test: Induction of apoptosis in human HeLa cells assessed as increase in Bax expression at 10 to 15 uM by Western blotting analysis relative to control; assay type: functional, cell-based
HeLa [33] = test: Induction of apoptosis in human HeLa cells assessed as reduction in Bcl2 expression by Western blotting analysis relative to control; assay type: functional, cell-based

CC(C)c1ccc2c(c1)C(=O)C[C@H]1[C@](C)(C(=O)N[C@@H](Cc3ccccc3)C(=O)Nc3ccccc3Cl)CCC[C@]21C
IC50 (HeLa [1]): 7.76 µM | IC50 (NCI-H460): 24.3 µM | IC50 (MGC-803): 9.7 µM | IC50 [2]: 53.8 µM | Activity (HeLa [3]): Active | Activity (HeLa [4]): Active | Activity (HeLa [5]): Active | Activity (HeLa [6]): Active | Activity (HeLa [7]): Active | Activity (HeLa [8]): 13.6% | Activity (HeLa [9]): 21.8% | Activity (HeLa [10]): 6.93% | Activity (HeLa [11]): 13.7% | Activity (HeLa [12]): 0.677% | Activity (HeLa [13]): 0.612% | viability at 10 µM (HeLa [14]): 78.8% | viability at 15 µM (HeLa [15]): 64% | Activity (HeLa [16]): 20.53% | Activity (HeLa [17]): 34.5% | Activity (HeLa [18]): 27.79% | Activity (HeLa [19]): 15.49% | Activity (HeLa [20]): 4.8% | Activity (HeLa [21]): 1.47% | Activity (HeLa [22]): 67.41% | Activity (HeLa [23]): 83.05% | Activity (HeLa [24]): Active | Activity (HeLa [25]): Active | Activity (HeLa [26]): Active | Activity (HeLa [27]): tde | Activity (HeLa [28]): tde | Activity (HeLa [29]): Active | Activity (HeLa [30]): Active | Activity (HeLa [31]): Active | Activity (HeLa [32]): Active | Activity (HeLa [33]): Dose-dependent effect
